Data: patent US20200377561A1, “ANTIMICROBIAL PEPTIDES AND METHODS OF TREATING GRAM-NEGATIVE PATHOGEN INFECTIONS: POLAR AND NON-POLAR FACE ANALOGS” (THE REGENTS OF THE UNIVERSITY OF COLORADO, a body corporate, priority 2017, published 2020)
Peptide text beside a SMILES is read from it.

Experiments:
Human erythrocytes = assay: Haemolysis assay using human blood; type: cell-based; details: red cells of human, 1 h
Protocol: To determine the extent of haemolytic activity (the ability to lyse red blood cells) in test peptides, a haemolysis assay was conducted using human blood (BioIVT, West Sussex, UK). Human erythrocytes were exposed to a single fixed concentration or a range of concentrations as to determine the % haemolysis (fixed concentration) or the concentration at which 50% haemolysis occurred (HC50), respectively. Prior to the assay, whole human blood was repeatedly washed in phosphate buffered saline (PBS) under cooled conditions to remove the buffy coat, plasma and cell debris. Washed erythrocytes were diluted as to achieve 1×10^8 cells/mL in PBS. Prepared human erythrocyte samples were combined with peptide at a single fixed concentration of 128 μg/mL, or a range of concentrations (two-fold dilution series) from 1000-31.25 μg/mL. Positive and negative controls containing 2% (v/v) Triton X-100 and PBS alone, respectively, were also prepared. Samples were incubated at 37° C. for 1 hour and then centrifuged to collect intact erythrocytes. Haemoglobin release was determined by recording the optical density of the supernatant at 540 nm. Optical density values were transformed to a percentage of the positive control. Results were recorded as a percentage haemolysis at 128 μg/mL, or by plotting the percentage haemolysis versus concentration and extrapolating the HC50 using linear regression analysis (Table 2 above)
The therapeutic index is a widely-accepted parameter to represent the specificity of antimicrobial peptides for prokaryotic versus eukaryotic cells. It is calculated by the ratio of hemolytic activity and antimicrobial activity (MIC) (Table 2 above); thus, larger values of therapeutic index indicate greater specificity for prokaryotic cells. With the peptides used in this study the inventors used the HC50/MIC ratio value to calculate the therapeutic index.

[1] = Peptide hydrophobicity by RP-HPLC retention; type: physicochemical; details: for tR (relative hydrophobicity by RP-HPLC): Zorbax SB-300 C8, 0.25% B/min from 10% B, 0.3 ml/min, 30° C.
From the text: Retention behavior in RP-HPLC is an excellent method to represent overall peptide hydrophobicity. Retention times of peptides are highly sensitive to the conformational status of the peptides upon interaction with the hydrophobic environment of the column matrix^17,26. The non-polar faces of amphipathic alpha-helical and amphipathic cyclic beta-sheet peptides represent a preferred binding domain for interaction with the hydrophobic matrix of the reversed-phase column^27. In this study, the observed peptide hydrophobicity was determined by RP-HPLC retention time as described below and are relative hydrophobicities because they are dependent on the TFA concentration and organic solvent in the mobile phase, gradient rate, temperature, flow rate and the column used. Analytical Purification by Reversed-phase Chromatography: Analytical RP-HPLC: Column: Zorbax SB-300 C8 (150×2.1 mm ID; 5-μm particle size; 300 Å pore size). Conditions: linear AB gradient (0.25% B/min from 10% B) at a flow-rate of 0.3 ml/min, where Eluent A is 0.2% aq. TFA and Eluent B is 0.18% TFA in acetonitrile; 30° C.

[2] = tested on: Pseudomonas aeruginosa ATCC 27853; type: cell-based; details: ATCC 27853
Protocol: (§1) Bacterial strains were acquired from the American Type Culture Collection (ATCC, Virginia, USA) and the National Collection of Type Cultures (NCTC, Public Health England, Salisbury, UK). Minimum Inhibitory Concentration (MIC) of peptides versus gram-negative strains-Acinetobacter baumannii NCTC 13420, and Pseudomonas aeruginosa ATCC 27853 and gram-positive strain Staphylococcus aureus ATCC 29213, were determined by broth microdilution as per the guidelines of the Clinical and Laboratory Standards Institute (“Methods for Dilution Antimicrobial Susceptibility Tests for Bacteria That Grow Aerobically”; Approved Standard-Ninth Edition. CLSI document M07-A9, 2012). Peptides were dissolved in sterile distilled water, which was also used as the drug-free vehicle control when determining peptide MICs. Prior to use in the MIC protocol, bacterial strains were grown on Mueller Hinton agar at 37° C. in an ambient atmosphere. […] A fixed inoculum of the test microorganism (5×10^5 cells/mL) is also added to the plate. The MIC is determined as the lowest concentration of compound that inhibits visible bacterial growth following incubation at 37° C. for 16-20 hours. A difference in MIC of two-fold between experimental replicates is considered to be within the normal variability of this protocol.

[3] = tested on: Acinetobacter baumannii NCTC 13420; type: cell-based; details: NCTC 13420
Protocol: as §1

Structure (SMILES) | Haemolysis HC50 (Human erythrocytes) [µg/mL] | tR (relative hydrophobicity by RP-HPLC) [1] [min] | P. aeruginosa ATCC27853 MIC [2] [µg/mL] | Antimicrobial Activity MIC A. baumannii NCTC13420 [3] [µg/mL] | ΔtR (Lys) ([1]; retention time difference to the Lys13/Lys16 parent peptide) [min]
CC(=O)N[C@H](C)C(=O)N[C@H](CC(C)C)C(=O)N[C@H](CCCCN)C(=O)N[C@H](CCCCN)C(=O)N[C@H](CC(C)C)C(=O)N[C@H](CC(C)C)C(=O)N[C@H](CCCCN)C(=O)N[C@H](CCCCN)C(=O)N[C@H](CC(C)C)C(=O)N[C@H](CO)C(=O)N[C@H](CO)C(=O)N[C@H](C)C(=O)N[C@H](CCCCN)C(=O)N[C@H](CO)C(=O)N[C@H](CO)C(=O)N[C@H](CCCCN)C(=O)N[C@H](CC(C)C)C(=O)N[C@H](CO)C(=O)N[C@@H](C(=O)N[C@H](CC(C)C)C(=O)N[C@H](CC(C)C)C(=O)N[C@H](CCCCN)C(=O)N[C@H](CCCCN)C(=O)N[C@H](CC(C)C)C(=O)N[C@H](CCCCN)C(=O)N[C@H](CCCCN)C(N)=O)[C@H](C)O [compound 8] (HELM PEPTIDE1{[ac].[dA].[dL].[dK].[dK].[dL].[dL].[dK].[dK].[dL].[dS].[dS].[dA].[dK].[dS].[dS].[dK].[dL].[dS].[dT].[dL].[dL].[dK].[dK].[dL].[dK].[dK].[am]}$$$$V2.0) | >1000 | 94.51 | 4 | 2 | 
CC(=O)N[C@H](CCCCN)C(=O)N[C@H](CC(C)C)C(=O)N[C@H](CCCCN)C(=O)N[C@H](CO)C(=O)N[C@H](CC(C)C)C(=O)N[C@H](CC(C)C)C(=O)N[C@H](CCCCN)C(=O)N[C@H](CO)C(=O)N[C@H](CC(C)C)C(=O)N[C@H](CO)C(=O)N[C@H](CCCCN)C(=O)N[C@H](C)C(=O)N[C@H](CCCCN)C(=O)N[C@H](CCCCN)C(=O)N[C@H](CCCCN)C(=O)N[C@H](CCCCN)C(=O)N[C@H](CC(C)C)C(=O)N[C@H](CCCCN)C(=O)N[C@H](CO)C(=O)N[C@H](CC(C)C)C(=O)N[C@H](CC(C)C)C(=O)N[C@H](CCCCN)C(=O)N[C@H](C)C(=O)N[C@H](CC(C)C)C(=O)N[C@H](CO)C(=O)N[C@H](CCCCN)C(N)=O [compound 26] (HELM PEPTIDE1{[ac].[dK].[dL].[dK].[dS].[dL].[dL].[dK].[dS].[dL].[dS].[dK].[dA].[dK].[dK].[dK].[dK].[dL].[dK].[dS].[dL].[dL].[dK].[dA].[dL].[dS].[dK].[am]}$$$$V2.0) | >1000 |  | 2 | 1 | 
CC(=O)N[C@H](CCCCN)C(=O)N[C@H](CC(C)C)C(=O)N[C@H](CCCCN)C(=O)N[C@H](CCCCN)C(=O)N[C@H](CC(C)C)C(=O)N[C@H](CC(C)C)C(=O)N[C@H](CCCCN)C(=O)N[C@H](CCCCN)C(=O)N[C@H](CC(C)C)C(=O)N[C@H](CO)C(=O)N[C@H](CO)C(=O)N[C@H](C)C(=O)N[C@H](CN)C(=O)N[C@H](CO)C(=O)N[C@H](CO)C(=O)N[C@H](CN)C(=O)N[C@H](CC(C)C)C(=O)N[C@H](CO)C(=O)N[C@@H](C(=O)N[C@H](CC(C)C)C(=O)N[C@H](CC(C)C)C(=O)N[C@H](CCCCN)C(=O)N[C@H](CCCCN)C(=O)N[C@H](CC(C)C)C(=O)N[C@H](CCCCN)C(=O)N[C@H](CCCCN)C(N)=O)[C@H](C)O [compound 16] (HELM PEPTIDE1{[ac].[dK].[dL].[dK].[dK].[dL].[dL].[dK].[dK].[dL].[dS].[dS].[dA].[NC[C@@H](N[*:1])C(=O)[*:2]].[dS].[dS].[NC[C@@H](N[*:1])C(=O)[*:2]].[dL].[dS].[dT].[dL].[dL].[dK].[dK].[dL].[dK].[dK].[am]}$$$$V2.0) | >1000 | 84.06 | 4 | 2 | 3.31
CC(=O)N[C@H](CCCCN)C(=O)N[C@H](CC(C)C)C(=O)N[C@H](CO)C(=O)N[C@H](CO)C(=O)N[C@H](CC(C)C)C(=O)N[C@H](CC(C)C)C(=O)N[C@H](CO)C(=O)N[C@H](CCCCN)C(=O)N[C@H](CC(C)C)C(=O)N[C@H](CCCCN)C(=O)N[C@H](CCCCN)C(=O)N[C@H](C)C(=O)N[C@H](CCCCN)C(=O)N[C@H](CCCCN)C(=O)N[C@H](CCCCN)C(=O)N[C@H](CCCCN)C(=O)N[C@H](CC(C)C)C(=O)N[C@H](CCCCN)C(=O)N[C@H](CCCCN)C(=O)N[C@H](CC(C)C)C(=O)N[C@H](CC(C)C)C(=O)N[C@H](CCCCN)C(=O)N[C@H](C)C(=O)N[C@H](CC(C)C)C(=O)N[C@H](CO)C(=O)N[C@H](CO)C(N)=O [compound 5] (HELM PEPTIDE1{[ac].[dK].[dL].[dS].[dS].[dL].[dL].[dS].[dK].[dL].[dK].[dK].[dA].[dK].[dK].[dK].[dK].[dL].[dK].[dK].[dL].[dL].[dK].[dA].[dL].[dS].[dS].[am]}$$$$V2.0) | 669 |  | 2 | 1 | 
CC(=O)N[C@H](C)C(=O)N[C@H](CC(C)C)C(=O)N[C@H](CO)C(=O)N[C@H](CO)C(=O)N[C@H](CC(C)C)C(=O)N[C@H](CC(C)C)C(=O)N[C@H](CO)C(=O)N[C@H](CCCCN)C(=O)N[C@H](CC(C)C)C(=O)N[C@H](CCCCN)C(=O)N[C@H](CCCCN)C(=O)N[C@H](C)C(=O)N[C@H](CCCCN)C(=O)N[C@H](CCCCN)C(=O)N[C@H](CCCCN)C(=O)N[C@H](CCCCN)C(=O)N[C@H](CC(C)C)C(=O)N[C@H](CCCCN)C(=O)N[C@H](CCCCN)C(=O)N[C@H](CC(C)C)C(=O)N[C@H](CC(C)C)C(=O)N[C@H](CCCCN)C(=O)N[C@H](C)C(=O)N[C@H](CC(C)C)C(=O)N[C@H](CO)C(=O)N[C@H](CO)C(N)=O [compound 10] (HELM PEPTIDE1{[ac].[dA].[dL].[dS].[dS].[dL].[dL].[dS].[dK].[dL].[dK].[dK].[dA].[dK].[dK].[dK].[dK].[dL].[dK].[dK].[dL].[dL].[dK].[dA].[dL].[dS].[dS].[am]}$$$$V2.0) | >1000 |  | 2 | 2 | 
CC(=O)N[C@H](C)C(=O)N[C@H](CC(C)C)C(=O)N[C@H](CCCCN)C(=O)N[C@H](CO)C(=O)N[C@H](CC(C)C)C(=O)N[C@H](CC(C)C)C(=O)N[C@H](CCCCN)C(=O)N[C@H](CCCCN)C(=O)N[C@H](CC(C)C)C(=O)N[C@H](CO)C(=O)N[C@H](CCCCN)C(=O)N[C@H](C)C(=O)N[C@H](CCCCN)C(=O)N[C@H](CCCCN)C(=O)N[C@H](CCCCN)C(=O)N[C@H](CCCCN)C(=O)N[C@H](CC(C)C)C(=O)N[C@H](CCCCN)C(=O)N[C@H](CCCCN)C(=O)N[C@H](CC(C)C)C(=O)N[C@H](CC(C)C)C(=O)N[C@H](CCCCN)C(=O)N[C@H](C)C(=O)N[C@H](CC(C)C)C(=O)N[C@H](CO)C(=O)N[C@H](CO)C(N)=O [compound 23] (HELM PEPTIDE1{[ac].[dA].[dL].[dK].[dS].[dL].[dL].[dK].[dK].[dL].[dS].[dK].[dA].[dK].[dK].[dK].[dK].[dL].[dK].[dK].[dL].[dL].[dK].[dA].[dL].[dS].[dS].[am]}$$$$V2.0) | 175 |  | 2 | 2 | 
